Measurements reported in PubChem BioAssay (NCI).
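Protocol summary: plate cells (96-well), add compound at 5 concentrations, incubate 48 h, interpolate endpoints linearly. GI50: concentration for 50% inhibition of growth. TGI: total growth inhibition.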

Experiments:
Test in all cases: NCI anticancer screen, dose series, 48 h
NCI-H23 lung = tested on: NCI-H23 lung
K-562 leukemia = tested on: K-562 leukemia
SNB-75 CNS = tested on: SNB-75 CNS
786-0 renal = tested on: 786-0 renal
SW-620 colon = tested on: SW-620 colon
OVCAR-4 ovarian = tested on: OVCAR-4 ovarian
KM12 colon = tested on: KM12 colon
HCT-15 colon = tested on: HCT-15 colon
UO-31 renal = tested on: UO-31 renal
T-47D breast = tested on: T-47D breast

Row | Structure (SMILES) | TGI (NCI-H23 lung) | TGI (K-562 leukemia) | TGI (SNB-75 CNS) | TGI (786-0 renal) | TGI (SW-620 colon) | TGI (OVCAR-4 ovarian) | TGI (KM12 colon) | TGI (HCT-15 colon) | TGI (UO-31 renal) | GI50 (NCI-H23 lung) | GI50 (SNB-75 CNS) | GI50 (786-0 renal) | GI50 (SW-620 colon) | GI50 (OVCAR-4 ovarian) | GI50 (KM12 colon) | GI50 (HCT-15 colon) | GI50 (UO-31 renal) | GI50 (T-47D breast) | TGI (T-47D breast) | GI50 (K-562 leukemia)
1 | OCC(O)COc1c(Cl)cc(Cl)cc1Cl (configuration not stated) | > 100 µM | > 66.1 µM | > 100 µM | > 76.5 µM | > 51.9 µM | > 100 µM | > 100 µM | > 100 µM | > 100 µM | – | – | – | – | – | – | – | – | – | – | –
2 | O=C(CCN1CCCC1)Nc1ccc2c(NCCc3ccccc3)c3ccccc3nc2c1 | 1.39 µM | – | 1.7 µM | 2.2 µM | 1.36 µM | 1.19 µM | 1.8 µM | 4.85 µM | 3.69 µM | 0.374 µM | 0.453 µM | 0.819 µM | 0.3 µM | 0.326 µM | 0.466 µM | 1.73 µM | 1.49 µM | – | – | –
3 | O=C(NO)c1ccc(Cn2c(=O)n(-c3ccccc3)c(=O)c3ccccc32)cc1 | – | > 100 µM | 5.35 µM | 3.2 µM | 3.03 µM | 18.7 µM | 2.73 µM | – | 4.63 µM | – | 1.88 µM | 1.48 µM | 0.667 µM | 1.56 µM | 1.11 µM | – | 1.77 µM | 0.436 µM | 2.95 µM | 0.942 µM
4 | O=S1c2ccccc2NC(c2ccc3ccccc3c2)CC1c1ccccc1 (configuration not stated) | 40.1 µM | 37.5 µM | 86.6 µM | 31.1 µM | 42.7 µM | 53.9 µM | 41.7 µM | 54 µM | 47.9 µM | – | – | – | – | – | – | – | – | – | – | –
5 | CC[C@H]1CN(C)[C@H]2Cc3c([nH]c4ccccc34)C(=O)C[C@H]1C2C(=O)OC (some centres not stated) | > 100 µM | – | – | > 100 µM | > 100 µM | > 100 µM | > 100 µM | > 100 µM | > 100 µM | – | – | – | – | – | – | – | – | – | > 100 µM | –
6 | CCOC(=O)C(=O)Nc1ccccc1OCC | > 100 µM | > 100 µM | – | > 100 µM | > 100 µM | > 100 µM | > 100 µM | – | > 100 µM | – | – | – | – | – | – | – | – | – | – | –
7 | O=C1CCNC(=O)NC1 | – | > 100 µM | > 100 µM | > 100 µM | > 100 µM | > 100 µM | > 100 µM | > 100 µM | > 100 µM | – | – | – | – | – | – | – | – | – | – | –
8 | O=C(O)c1cn(C2CC2)c2cc(N3CCNCC3)c(F)cc2c1=O | > 100 µM | – | – | > 100 µM | > 100 µM | > 100 µM | > 100 µM | > 100 µM | > 100 µM | > 100 µM | – | > 100 µM | > 100 µM | > 100 µM | > 100 µM | > 100 µM | > 100 µM | 70 µM | > 100 µM | –
9 | CCCCCCCCCCCCCCCC(=O)OCC1OC(OC)C(NC(=O)N(CCCl)N=O)C(O)C1O (configuration not stated) | 32 µM | 62.1 µM | 38.5 µM | 14.9 µM | 28.5 µM | 53.4 µM | 56.2 µM | 35.4 µM | 48.9 µM | – | – | – | – | – | – | – | – | – | – | –
10 | CN(C)c1ccc(Nc2c3ccccc3nc3cc(NC(=O)CCN4CCCC4)ccc23)cc1 | 1.35 µM | – | 1.72 µM | 1.38 µM | 1.68 µM | 2.16 µM | 1.88 µM | 2.2 µM | 1.92 µM | 0.29 µM | 0.381 µM | 0.343 µM | 0.252 µM | 0.57 µM | 0.497 µM | 0.816 µM | 0.595 µM | 0.455 µM | 2.43 µM | –
11 | C=C(C)[C@@H]1CC[C@]2(C(=O)O)CC[C@]3(C)[C@H](CC[C@@H]4[C@@]5(C)C/C(=C/c6cccc(I)c6)C(=O)C(C)(C)[C@@H]5CC[C@]43C)[C@@H]12 | 8.44 µM | 49.5 µM | – | 6.72 µM | 4.58 µM | 8.28 µM | 3.6 µM | 10.2 µM | 5.17 µM | 2.49 µM | – | 2.46 µM | 1.95 µM | 2.38 µM | 1.59 µM | 2.63 µM | 1.72 µM | 2.9 µM | 19 µM | 2.37 µM
12 | O=C1CCCC(O)=C1SC1=C(O)CCCC1=O | > 100 µM | > 100 µM | > 100 µM | > 100 µM | > 100 µM | > 100 µM | > 100 µM | > 100 µM | > 100 µM | – | – | – | – | – | – | – | – | – | – | –
13 | CN1C(=O)CCC1c1ccc2c(c1)oc(=O)n2C (configuration not stated) | > 100 µM | > 100 µM | > 100 µM | > 100 µM | > 100 µM | > 100 µM | > 100 µM | > 100 µM | > 100 µM | – | – | – | – | – | – | – | – | – | – | –
14 | O=C(Oc1ccc2c(-c3ccccc3)c(C(=O)Nc3ccc(Cl)cc3)c(=O)oc2c1)c1ccccc1 | > 100 µM | > 100 µM | > 100 µM | > 100 µM | > 100 µM | – | > 100 µM | > 100 µM | > 100 µM | – | – | – | – | – | – | – | – | – | – | –
15 | CN(C)c1ccc2cc3ccc(N(C)C)cc3nc2c1 | 6.17 µM | 21.6 µM | 11.9 µM | 2.26 µM | – | 3.37 µM | 1.85 µM | 2.94 µM | 4.11 µM | – | – | – | – | – | – | – | – | – | 36.4 µM | –
16 | Cc1cc(NCc2cc(Nc3ccnc4cc(Cl)ccc34)ccc2F)nc(N2CCSCC2)n1 | 5.24 µM | 3.35 µM | 2.9 µM | 3.13 µM | – | 5.51 µM | – | 3.54 µM | 2.87 µM | 1.78 µM | 1.32 µM | 1.6 µM | – | 1.82 µM | – | 1.54 µM | 1.38 µM | 1.97 µM | 4.71 µM | 0.906 µM
17 | NC(CCc1ncc(-c2ccccc2)s1)C(=O)O (configuration not stated) | > 100 µM | > 100 µM | > 100 µM | > 100 µM | > 100 µM | – | > 100 µM | > 100 µM | > 100 µM | – | – | – | – | – | – | – | – | – | – | –
18 | COc1ccc2c(c1)C(=O)c1c-2c(N2CCN(C(=O)CNCCN(C)C)CC2)nc2ccccc12 | – | > 100 µM | – | 3.09 µM | 2.53 µM | 16.7 µM | 4.38 µM | 5.44 µM | 2.78 µM | – | – | 1.48 µM | 1.27 µM | 5.62 µM | 1.83 µM | 2.3 µM | 1.38 µM | 1.38 µM | 3.07 µM | 0.72 µM
19 | O=c1ccn(C2(CO)C=C(CO)C(O)C2O)c(=O)[nH]1 (configuration not stated) | – | > 25.7 µM | > 25.7 µM | > 25.7 µM | > 25.7 µM | > 25.7 µM | > 25.7 µM | > 25.7 µM | > 25.7 µM | – | – | – | – | – | – | – | – | – | – | –
